From article PMC12652692, “Synthesis and In Vitro Anticancer Evaluation of Novel Phosphonium Derivatives of Chrysin” (International Journal of Molecular Sciences, 2025) come the findings set out here.

Holding throughout (experiment): NCI60 one-dose screen
Type in all cases: cell-based

Assay [1] has as its system A549/ATCC. Conditions: Homo sapiens, read-out: Growth percent. The protocol:
(§1) The screening results are presented in the Supplementary Materials (Table S1), where the cytotoxicity was determined for the 10 µM concentration. […] The negative numbers indicate significant decreases in the cell number. […] Compared to the reference chrysin (2), all phosphonium hybrids (3a–h) had significant antiproliferative activities. […] At the same time, it should be noted that more than 60% average reduction was also obtained in the case of the other examined conjugates (3a–h).
(§2) A detailed description of the NCI screening procedures, including the one-dose and five-dose tests, can be found in the Supplementary Materials, on the website of NCI [39], and in our previous work.
(§3) A detailed description of the NCI screening procedures can also be found on the website of NCI [39], and in our […]
(§4) All candidates were examined at first at a single high dose (10 μM) in the full NCI60 cell panel. The value reported for the one-dose test is growth relative to the no-drug control and relative to the time zero number of cells. This made possible the disclosure of both growth inhibition (numbers between 0 and 100) and lethality (numbers less than 0). For example, a value of 100 means no growth inhibition. A value of 20 would mean 80% growth inhibition. A value of 0 means no net growth over the course of the analysis. A value of −20 would mean 20% lethality. A value of −100 means all cells are dead. […]
(§5) concentration levels. The human tumor cell lines of the cancer screening panel were grown in RPMI 1640 medium containing 5% fetal bovine serum and 2 mM l-glutamine. Characteristically, cells were injected in 96-well microtiter plates in 0.1 mL at plating densities ranging from 5000 to 40,000 cells/well, depending on the doubling time of individual cell lines. After cell inoculation, the microtiter plates were incubated at 37 °C, 5% carbon dioxide, 95% air, and 100% relative humidity for 24 hours before the addition of tested compounds. After 24 hours, 2 plates of each cell line were fixed in situ with Cl3COOH (TCA), to represent a measurement of the cell population for each cell line at the time of drug addition (tz). Tested compounds were solubilized in DMSO at 400-fold the desired final maximum test concentration and stored frozen before application. In the course of the drug addition, an aliquot of frozen concentrate was thawed and diluted to twice the desired final maximum test concentration with a complete medium containing 50 μg mL−1 gentamicin. Additional four, 10-fold or ½ log serial dilutions were produced to furnish a total of five drug concentrations plus control. Aliquots of 0.1 mL of these different drug dilutions were added to the appropriate microtiter wells already containing 0.1 mL of medium, resulting in the required final drug concentrations.
(§6) Following drug addition, the plates were incubated at 37 °C, 5% carbon dioxide, 95% air, and 100% relative humidity for an additional 48 hours. For adherent cells, the test was finished by the addition of cold Cl3COOH. Cells were fixed in situ by the addition of 50 μL of cold 50% (w/v) Cl3COOH, and incubated at 4 °C for 1 hour. The supernatant was discarded, and the plates were washed with H2O (5×) and dried in air. Sulforhodamine B (SRB) solution (0.1 mL) at 0.4% (w/v) in 1% CH3COOH was added to each well, and plates were incubated at RT for 10 min. After staining, the unbound dye was removed by washing five times with 1% CH3COOH, and the plates were dried in the air. The bound stain is afterward solubilized with a 10 mM trizma base, and the absorbance is read on an automated plate reader at λ = 515 nm. Utilizing the seven absorbance measurements [time zero (tz), control growth (c), and test growth in the presence of the drug at the five concentration levels (ti)], the percentage growth was determined at each of the drug concentration levels. Growth inhibition (%) was calculated as:
(§7) [(ti − tz)/(c − tz)] × 100, for concentrations where ti ≥ tz (1) […]

In assay [2] the test system is ACHN. Conditions: Homo sapiens, read-out: Growth percent. As to the method:
as §1, §2, §3, §4, §5, §6, §7

For assay [3], the system named is BT-549. The note with it: Homo sapiens; BT-549, 10 μM; read-out: Growth percent. The protocol:
as §1, §2, §3, §4, §5, §6, §7

Assay [4] concerns CCRF-CEM. Conditions: Homo sapiens, read-out: Growth percent. As to the method: as §1, §2, §3, §4, §5, §6, §7
The subject of assay [5] is COLO 205. The note with it: Homo sapiens; COLO 205, 10 μM; read-out: Growth percent. As to the method: as §1, §2, §3, §4, §5, §6, §7
In assay [6] the test system is HCC-2998. The note with it: Homo sapiens; HCC-2998, 10 μM; read-out: Growth percent. The protocol: as §1, §2, §3, §4, §5, §6, §7
Assay [7] has as its system HCT-15. The note with it: Homo sapiens; HCT-15, 10 μM; read-out: Growth percent. The protocol: as §1, §2, §3, §4, §5, §6, §7
Assay [8] concerns HOP-62. The note with it: Homo sapiens; HOP-62, 10 μM; read-out: Growth percent. As to the method: as §1, §2, §3, §4, §5, §6, §7
Assay [9] deals with K-562. The note with it: Homo sapiens, K562; K-562, 10 μM; read-out: Growth percent. As to the method: as §1, §2, §3, §4, §5, §6, §7
Assay [10] relates to LOX IMVI. The note with it: Homo sapiens, read-out: Growth percent. The protocol:
as §1, §2, §3, §4, §5, §6, §7

The test system of assay [11] is MOLT-4. The note with it: Homo sapiens; MOLT-4, 10 μM; read-out: Growth percent. As to the method: as §1, §2, §3, §4, §5, §6, §7
Assay [12] deals with NCI-H226. The note with it: Homo sapiens; NCI-H226, 10 μM; read-out: Growth percent. As to the method: as §1, §2, §3, §4, §5, §6, §7
Assay [13] concerns NCI-H322M. Conditions: Homo sapiens, read-out: Growth percent. As to the method:
as §1, §2, §3, §4, §5, §6, §7

Assay [14] relates to NCI-H460. Conditions: Homo sapiens; NCI-H460, 10 μM; read-out: Growth percent. As to the method: as §1, §2, §3, §4, §5, §6, §7
The subject of assay [15] is NCI-H522. Conditions: Homo sapiens; NCI-H522, 10 μM; read-out: Growth percent. The protocol: as §1, §2, §3, §4, §5, §6, §7
Assay [16] has as its system OVCAR-3. The note with it: Homo sapiens; OVCAR-3, 10 μM; read-out: Growth percent. As to the method:
as §1, §2, §3, §4, §5, §6, §7

For assay [17], the system named is OVCAR-8. The note with it: Homo sapiens; OVCAR-8, 10 μM; read-out: Growth percent. The protocol:
as §1, §2, §3, §4, §5, §6, §7

For assay [18], the system named is RPMI-8226. The note with it: Homo sapiens; RPMI-8226, 10 μM; read-out: Growth percent. The protocol: as §1, §2, §3, §4, §5, §6, §7
Assay [19] deals with SF-268. The note with it: Homo sapiens; SF-268, 10 μM; read-out: Growth percent. As to the method: as §1, §2, §3, §4, §5, §6, §7
Assay [20] relates to SK-MEL-2. Conditions: Homo sapiens; SK-MEL-2, 10 μM; read-out: Growth percent. The protocol:
as §1, §2, §3, §4, §5, §6, §7

The test system of assay [21] is SNB-75. The note with it: Homo sapiens; SNB-75, 10 μM; read-out: Growth percent. As to the method: as §1, §2, §3, §4, §5, §6, §7

Each structure is given as a SMILES string.

On to `O=c1cc(-c2ccccc2)oc2cc(OCCCC[P+](c3ccccc3)(c3ccccc3)c3ccccc3)cc(O)c12` [3a], for which the activity at 10 µM in assay [1] was -56%; in assay [2] it was -100%; in assay [3], -83%; in assay [4], -75.9%; in assay [5], -56.3%; in assay [6] it was -93.1%. The activity at 10 µM in [7] is -94.2%; in assay [8], -63.6%; in assay [9] it was -24.1%; in [10], -90.1%; in assay [11], -41.7%; in assay [12], -29%. Moreover, the activity at 10 µM in [13] was -100%; in assay [14], -75.8%; in [15] it was -81.9%; in [16] it was -94%; in [17] it was -61.1%; in assay [18] it was -66.7%. In addition, the activity at 10 µM is -59% in assay [19], -94.1% in [20] and -80.7% in assay [21].

For `Cc1ccc([P+](CCCCOc2cc(O)c3c(=O)cc(-c4ccccc4)oc3c2)(c2ccc(C)cc2)c2ccc(C)cc2)cc1` [3b], the activity at 10 µM in assay [1] was -49.5%; in [2], -92.8%; in [3], -19%; in assay [4], -70.5%; in [5], -64.5%; in [6], -88.7%. Besides, the activity at 10 µM in assay [7] was -88%; in [8] it was -62%; in assay [9] it was -4.21%; in [10], -91.2%; in assay [11], -43.4%; in [12], -50.2%. Also, the activity at 10 µM in assay [13] is -79.5%; in assay [14], -47.8%; in assay [15] it was -74.4%; in assay [16], -88.2%; in [17], -30.1%; in assay [18] it was -55.8%. Besides, the activity at 10 µM in [19] was -61.3%; in [20], -76.9%; in assay [21], -78.4%.

`COc1ccc([P+](CCCCOc2cc(O)c3c(=O)cc(-c4ccccc4)oc3c2)(c2ccc(OC)cc2)c2ccc(OC)cc2)cc1` [3c]: the activity at 10 µM is -91.2% in assay [1]; -63.5% in assay [2]; -82.6% in assay [3]; -71.7% in assay [4]; -68.3% in [5]; -72.9% in assay [6]. Also, the activity at 10 µM in [7] was -64.2%; in [8], -81.1%; in assay [9] it was -39.8%; in [10], -78.8%; in assay [11], -51.6%; in assay [12] it was -67.6%. The activity at 10 µM is -45.1% in assay [13]; 2.18% in [14]; -84.9% in assay [15]; -68.1% in assay [16]; -90.6% in assay [17]; -67.5% in [18]. Besides, the activity at 10 µM in assay [19] is -38.3%; in [20], -88.6%; in [21], -51.1%.

For the compound `O=c1cc(-c2ccccc2)oc2cc(OCCCC[P+](c3ccc(F)cc3)(c3ccc(F)cc3)c3ccc(F)cc3)cc(O)c12` [3d], the activity at 10 µM in assay [1] is -41.1%; in [2] it was -85.4%; in assay [3] it was -76%; in assay [4] it was -55.9%; in assay [5] it was -68.4%; in assay [6], -89%. Also, the activity at 10 µM in assay [7] is -48.6%; in assay [8], -70.8%; in [9], -17.6%; in assay [10] it was -93.7%; in assay [11], -24.3%; in assay [12], -56.9%. Also, the activity at 10 µM is -88.3% in assay [13]; -47.4% in [14]; -74.4% in assay [15]; -72% in assay [16]; -45.6% in assay [17]; -30.1% in assay [18]. The results for the activity at 10 µM in assay [19], in assay [20] and in assay [21] were -71.6%, -77.3% and -78%, respectively.

On to `O=c1cc(-c2ccccc2)oc2cc(OCCCC[P+](C3CCCCC3)(C3CCCCC3)C3CCCCC3)cc(O)c12` [3e], for which the activity at 10 µM in [1] was -95.3%; in [2], -72.5%; in assay [3], -89.9%; in [4], -66.7%; in assay [5], -70.2%; in assay [6] it was -84.7%. Further, the activity at 10 µM in assay [7] was -88.8%; in assay [8], -82.6%; in assay [9] it was 3.17%; in assay [10], -90.5%; in assay [11], -60.6%; in assay [12], -56.7%. The activity at 10 µM in [13] was -85.2%; in assay [14], -66%; in assay [15], -88%; in assay [16], -81.9%; in [17], -86.4%; in assay [18] it was -62.6%. Also, the results for the activity at 10 µM in [19], in assay [20] and in assay [21] were -67.5%, -91.9% and -80.5%, respectively.
